Source: patent publication US9211310B2, “Use of a Chinese medicine composition in preparing medicaments for treating secondary prevention of myocardial infarction” (TASLY PHARMACEUTICAL GROUP CO., LTD, priority 2010, dated 2015)

System: patients after acute myocardial infarction
Assay: Life quality, Seattle Angina Questionnaire (SAQ), same clinical trial
Format: in vivo, human
Conditions: FAS; 1 month after treatment
Source text: 3508 patients who were in accordance with the diagnostic standards of AMI for 28 days to 2 years and differentiated as Qi deficiency and blood stagnation syndrome by TCM were studied. 0.5 g Chinese medicine composition prepared by the method of EXAMPLE 1 (Coded as QSYQ) was administrated half an hour after meal, 3 times per day.
There were 19 questions in the Seattle angina questionnaire (SAQ), including 5 parts: physical limitation (PL), anginal stability (AS), anginal frequency (AF), treatment satisfaction (TS) and disease perception (DP). After being given necessary explanation by doctors, the questions were answered independently by patients.
They included the overall survival time, angina pectoris score, TCM symptom score and life quality score, where angina pectoris score, TCM symptom score and life quality score were evaluated at randomization, in 1st, 3rd, 6th, 9th, 12th month after treatment and 18th month after follow-up.
All evaluation results of SAQ were described during the period of observation, and Wilcoxon rank sum test was used for inter-group comparison.
The evaluation results in the SAQ were depicted in different observations, and inter-group comparison was tested by Wilcoxon Rank-sum test.

With CC(=O)Oc1ccccc1C(=O)O [Control group, aspirine] the “8th question: Highly satisfied, patients (%)” value was “(17.37%)”, the “8th question: Mostly dissatisfied, patients (%)” value was “(4.07%)” and the “8th question: Mostly satisfied, patients (%)” value was “(50.29%)”. For the same molecule, the “8th question: Partly satisfied, patients (%)” value was “(27.92%)”, the “9th question: Few, patients (%)” value was “(26.78%)” and the “9th question: Mild, patients (%)” value was “(36.07%)”. The “9th question: Moderate, patients (%)” value was “(18.81%)”, the “9th question: Severe, patients (%)” value was “(2.24%)” and the “9th question: Uneffective, patients (%)” value was “(16.11%)”. The “10th question: Dissatisfied, patients (%)” value was “(22.71%)”, the “10th question: Highly satisfied, patients (%)” value was “(4.07%)” and the “10th question: Mostly dissatisfied, patients (%)” value was “(22.94%)”. For the same molecule, the “10th question: Mostly satisfied, patients (%)” value was “(20.70%)”, the “10th question: Partly satisfied, patients (%)” value was “(29.59%)” and the “11th question: Continuously worried, patients (%)” value was “(6.71%)”. The “11th question: No worried, patients (%)” value was “(4.70%)”, the “11th question: Occasionally worried, patients (%)” value was “(40.94%)” and the “11th question: Often worried, patients (%)” value was “(20.93%)”. For the same molecule, the “11th question: Seldom worried, patients (%)” value was “(26.72%)”, the “SAQ 4th question, 1-2 times per week: % of patients” value was “(17.55%)” and the “SAQ 4th question, 1-2 times per week: number of patients” value was 306. For the same molecule, the “SAQ 4th question, 1-3 times per day: % of patients” value was “(6.54%)”, the “SAQ 4th question, 1-3 times per day: number of patients” value was 114 and the “SAQ 4th question, <1 time per week: % of patients” value was “(9.58%)”. The “SAQ 4th question, <1 time per week: number of patients” value was 167, the “SAQ 4th question, Not used: % of patients” value was “(53.10%)” and the “SAQ 4th question, Not used: number of patients” value was 926. The “SAQ 4th question, ≧3 times per week: % of patients” value was “(13.19%)”, the “SAQ 4th question, ≧3 times per week: number of patients” value was 230 and the “SAQ 4th question, ≧4 times per day: % of patients” value was “(0.06%)”. The “SAQ 4th question, ≧4 times per day: number of patients” value was 1, the “SAQ 5th question, Few: % of patients” value was “(21.56%)” and the “SAQ 5th question, Few: number of patients” value was 376. For the same molecule, the “SAQ 5th question, Mild: % of patients” value was “(28.90%)”, the “SAQ 5th question, Mild: number of patients” value was 504 and the “SAQ 5th question, Moderate: % of patients” value was “(17.43%)”. For the same molecule, the “SAQ 5th question, Moderate: number of patients” value was 304, the “SAQ 5th question, None: % of patients” value was “(26.32%)” and the “SAQ 5th question, None: number of patients” value was 459. For the same molecule, the “SAQ 5th question, Not medicated by doctors: % of patients” value was “(3.38%)”, the “SAQ 5th question, Not medicated by doctors: number of patients” value was 59 and the “SAQ 5th question, Severe: % of patients” value was “(2.41%)”. The “SAQ 5th question, Severe: number of patients” value was 42, the “SAQ 6th question, Dissatisfied: % of patients” value was “(0.46%)” and the “SAQ 6th question, Dissatisfied: number of patients” value was 8. For the same molecule, the “SAQ 6th question, Highly consent: % of patients” value was “(18.00%)”, the “SAQ 6th question, Highly consent: number of patients” value was 314 and the “SAQ 6th question, Mostly dissatisfied: % of patients” value was “(4.01%)”. The “SAQ 6th question, Mostly dissatisfied: number of patients” value was 70, the “SAQ 6th question, Mostly satisfied: % of patients” value was “(49.14%)” and the “SAQ 6th question, Mostly satisfied: number of patients” value was 857. For the same molecule, the “SAQ 6th question, Partly satisfied: % of patients” value was “(28.38%)”, the “SAQ 6th question, Partly satisfied: number of patients” value was 495 and the “SAQ 7th question, Dissatisfied: % of patients” value was “(0.17%)”. For the same molecule, the “SAQ 7th question, Dissatisfied: number of patients” value was 3, the “SAQ 7th question, Highly satisfied: % of patients” value was “(23.31%)” and the “SAQ 7th question, Highly satisfied: number of patients” value was 406. For the same molecule, the “SAQ 7th question, Mostly dissatisfied: % of patients” value was “(3.10%)”, the “SAQ 7th question, Mostly dissatisfied: number of patients” value was 54 and the “SAQ 7th question, Mostly satisfied: % of patients” value was “(49.94%)”. For the same molecule, the “SAQ 7th question, Mostly satisfied: number of patients” value was 870, the “SAQ 7th question, Partly satisfied: % of patients” value was “(23.48%)” and the “SAQ 7th question, Partly satisfied: number of patients” value was 409. For the same molecule, the “SAQ Question 1-1 Mildly limited, number of patients” value was 24, the “SAQ Question 1-1 Mildly limited, percent of patients” value was “(1.38%)” and the “SAQ Question 1-1 Moderately limited, number of patients” value was 11. For the same molecule, the “SAQ Question 1-1 Moderately limited, percent of patients” value was “(0.63%)”, the “SAQ Question 1-1 Not limited, number of patients” value was 1607 and the “SAQ Question 1-1 Not limited, percent of patients” value was “(92.20%)”. For the same molecule, the “SAQ Question 1-1 Other reasons, number of patients” value was 4, the “SAQ Question 1-1 Other reasons, percent of patients” value was “(0.23%)” and the “SAQ Question 1-1 Severely limited, number of patients” value was 2. For the same molecule, the “SAQ Question 1-1 Severely limited, percent of patients” value was “(0.11%)”, the “SAQ Question 1-1 Slightly limited, number of patients” value was 95 and the “SAQ Question 1-1 Slightly limited, percent of patients” value was “(5.45%)”. The “SAQ Question 1-2 Mildly limited, number of patients” value was 32 and the “SAQ Question 1-2 Mildly limited, percent of patients” value was “(1.84%)”.
